In ChEMBL document CHEMBL5352381, “Design and development of a novel series of oral bivalent BET inhibitors with potent anticancer activities” (Eur J Med Chem, 2022):
pIC50: −log10 of the molar value. Active and inactive are the calls of the source. No cut-off for these calls is given here.

What was measured:
CAPAN-1 [1] = assay: Induction of apoptosis in human CAPAN-1 cells assessed as increase in caspase 9 at 0.1 to 10 nM for 48 hrs […]; type: functional, cell-based; conditions: dose 0.1-10 nM
Ty-82 [2] = assay: Induction of apoptosis in human Ty-82 cells assessed as increase in cleaved PARP at 0.1 to 10 nM for 48 hrs […]; type: functional, cell-based; conditions: dose 0.1-10 nM
MV4-11 = assay: Antitumor activity against human MV4-11 cells xenografted in BALB/c mouse assessed as growth inhibition at 0.6 mg/kg, po qd 21 days relative to control; type: functional; conditions: MV4-11, 504 h, time 21 day, read-out: GI
MM1.S = assay: Antiproliferative activity against human MM1.S cells incubated for 72 hrs by sulforhodamine B based cell counting kit-8 assay; type: functional
Ty-82 [3] = assay: Induction of apoptosis in human Ty-82 cells assessed as increase in caspase 7 at 0.1 to 10 nM for 48 hrs […]; type: functional, cell-based; conditions: dose 0.1-10 nM
[4] = Metabolic stability in dog liver microsomes assessed as clearance; type: ADME, Canis lupus familiaris, Microsome; conditions: read-out: CLH
Ty-82 [5] = assay: Induction of apoptosis in human Ty-82 cells assessed as reduction of c-Myc mRNA level at 0.1 to 10 nM for 24 hrs by […]; type: functional, cell-based; conditions: dose 0.1-10 nM
CAPAN-1 [6] = assay: Induction of apoptosis in human CAPAN-1 cells assessed as increased cleaved PARP at 0.1 to 10 nM for 48 hrs […]; type: functional, cell-based; conditions: dose 0.1-10 nM
[7] = Metabolic stability in mouse liver microsomes assessed as half life; type: ADME, Microsome
[8] = Toxicity in BALB/c mouse xenografted with human MV4-11 cells assessed as body weight loss at 0.6 mg/kg, po qd 21 days; type: organism-based; conditions: in vivo, 504 h, time 21 day
[9] = Metabolic stability in dog liver microsomes assessed as half life; type: ADME, Canis lupus familiaris, Microsome
CAPAN-1 [10] = assay: Induction of apoptosis in human CAPAN-1 cells assessed as increase in caspase 3 at 0.1 to 10 nM for 48 hrs […]; type: functional, cell-based; conditions: dose 0.1-10 nM
[11] = Toxicity in BALB/c mouse xenografted with human Ty-82 assessed as death treated at 0.25 to 0.5 mg/kg, po qd for 21 days; type: organism-based; conditions: in vivo, 504 h, dose 0.25-0.5 mg/kg, time 21 day
Ty-82 [12] = assay: Induction of apoptosis in human Ty-82 cells for 48 hrs by annexin V-FITC based flow cytometric analysis; type: functional, cell-based; conditions: dose 0.1-10 nM
[13] = Metabolic stability in mouse liver microsomes assessed as clearance; type: ADME, Microsome; conditions: read-out: CLH
Ty-82 [14] = assay: Induction of apoptosis in human Ty-82 cells assessed as increase in caspase 3 at 0.1 to 10 nM for 48 hrs […]; type: functional, cell-based; conditions: dose 0.1-10 nM
Ty-82 [15] = assay: Induction of apoptosis in human Ty-82 cells assessed as increase in caspase 9 at 0.1 to 10 nM for 48 hrs […]; type: functional, cell-based; conditions: dose 0.1-10 nM
[16] = Toxicity in BALB/c mouse xenografted with human Ty-82 assessed as body weight loss treated at 0.25 to 0.5 mg/kg, po qd for 21 days; type: organism-based; conditions: in vivo, 504 h, dose 0.25-0.5 mg/kg, time 21 day
Ty-82 [17] = assay: Antitumor activity against human Ty-82 cells xenografted in BALB/c nude mouse assessed tumor growth inhibition treated at 0.5 mg/kg, po qd for 21 days relative to control; type: functional; conditions: TY82, 504 h, time 21 day, read-out: TGI
[18] = Metabolic stability in human liver microsomes assessed as clearance; type: ADME, Microsome; conditions: read-out: CLH
Ty-82 [19] = assay: Induction of apoptosis in human Ty-82 cells assessed as reduction of IDO1 mRNA level at 0.1 to 10 nM for 24 hrs by […]; type: functional, cell-based; conditions: dose 0.1-10 nM
[20] = Metabolic stability in human liver microsomes assessed as half life; type: ADME, Microsome
CAPAN-1 [21] = assay: Induction of apoptosis in human CAPAN-1 cells assessed as increase in caspase 7 at 0.1 to 10 nM for 48 hrs […]; type: functional, cell-based; conditions: dose 0.1-10 nM
CAPAN-1 [22] = assay: Induction of apoptosis in human CAPAN-1 cells for 48 hrs by annexin V-FITC based flow cytometric analysis; type: functional, cell-based; conditions: dose 0.1-10 nM
Ty-82 [23] = assay: Antiproliferative activity against human Ty-82 cells incubated for 72 hrs by sulforhodamine B based cell counting kit-8 assay; type: functional; conditions: TY82, 72 h

SMILES: C[C@@H]1CN(C(=O)c2nc(-c3ccc4c(c3)N(C3CCC3)[C@H](C)C(=O)N4C)n(-c3cccc(Cl)c3)n2)[C@@H](C)CN1C(=O)c1nc(-c2ccc3c(c2)N(C2CCC2)[C@H](C)C(=O)N3C)n(-c2cccc(Cl)c2)n1
- Activity (CAPAN-1 [1]): Active
- Activity (Ty-82 [2]): Active
- inhibition in vivo at 0.6 mg/kg (MV4-11): 88.9%
- pIC50 (MM1.S): 10.15
- Activity (Ty-82 [3]): Active
- microsomal CLint [4]: 1.6 µL/min/mg
- Activity (Ty-82 [5]): Active
- Activity (CAPAN-1 [6]): Active
- half-life [7]: 3.72 h
- Activity [8]: Toxic
- half-life [9]: 14.6 h
- Activity (CAPAN-1 [10]): Active
- Activity [11]: Non-Toxic
- Activity (Ty-82 [12]): Dose-Dependent Effect
- microsomal CLint [13]: 6.2 µL/min/mg
- Activity (Ty-82 [14]): Active
- Activity (Ty-82 [15]): Active
- Activity [16]: Toxic
- inhibition in vivo at 0.5 mg/kg (Ty-82 [17]): 73.5%
- microsomal CLint [18]: 6 µL/min/mg
- Activity (Ty-82 [19]): Active
- half-life [20]: 3.86 h
- Activity (CAPAN-1 [21]): Active
- Activity (CAPAN-1 [22]): Dose-Dependent Effect
- pIC50 (Ty-82 [23]): 10.30
